Test results reported in US20260078099A1, “COMPOUND, PREPARATION METHOD THEREOF, AND LIPID NANOPARTICLE AND PHARMACEUTICAL COMPOSITION” (priority 2023, published 2026).

Columns and labels:
[1] = LNP encapsulation efficiency (Quant-it Ribogreen); assay type: physicochemical; details: mRNA LNP, cationic lipid/DSPC/cholesterol/PEG-lipid 50:10:38.5:1.5
Text: Encapsulation Efficiency: The encapsulation efficiency of a therapeutic and/or prophylactic agent refers to the amount of the therapeutic and/or prophylactic agent encapsulated within or otherwise associated with the nanoparticle composition relative to the initial amount provided during preparation. Encapsulation efficiency is desirably high (such as close to 100%). Encapsulation efficiency can be measured, for example, by comparing the amount of therapeutic and/or prophylactic agent in a solution containing the nanoparticle composition before and after disruption of the nanoparticle composition using one or more organic solvents or detergents. Fluorescence can be used to measure the amount of free therapeutic and/or prophylactic agent (e.g., RNA) in solution. For the nanoparticle compositions described herein, the encapsulation efficiency of the therapeutic and/or prophylactic agent may be at least 50%, such as 50%, 55%, 60%, 65%, 70%, 75%, 80%, 85%, 90%, 91%, 92%, 93%, 94%, 95%, 96%, 97%, 98%, 99%, or 100%. In some embodiments, the encapsulation efficiency may be at least 80%. In certain embodiments, the encapsulation efficiency may be at least 90%.
(§1) In summary, the cationic lipid described herein, DSPC, cholesterol, and PEG-lipid were dissolved in ethanol at a molar ratio of 50:10:38.5:1.5 and diluted in 10 mM to 50 mM citrate buffer at pH 4 with mRNA. Using a microfluidic device, the lipid ethanol solution was mixed with mRNA aqueous solution at a volume ratio of 1:3 and a total flow rate ranging from 6-30 mL/min, preparing LNPs with a total lipid to mRNA weight ratio of approximately 10:1 to 30:1. Ethanol was removed by dialysis and replaced with PBS. Finally, the lipid nanoparticles were filtered through a 0.22 μm sterile filter.
(§2) The size of lipid nanoparticles was measured by dynamic light scattering using a Malvern Zetasizer Nano ZS (Malvern, UK) with a 90° scattering detection mode. The encapsulation efficiency of lipid nanoparticles was determined using the Quant-it Ribogreen RNA Quantitation Kit (Thermo Fisher Scientific, UK) according to the manufacturer's instructions. The apparent pKa of LNP formulations correlates with the delivery efficiency of nucleic acids by LNPs in vivo. The apparent pKa ranges from approximately 5 to 7. An analysis based on fluorescence from 2-(p-tolylamino)-6-naphthalenesulfonic acid (TNS) was used to determine the apparent pKa of formulations. As described above, LNP formulations containing cationic lipid/DSPC/cholesterol/DMG-PEG (50/10/38.5/1.5 mol %) in PBS were prepared. A 300 μM stock solution of TNS in distilled water was prepared. LNP formulations were diluted to 0.1 mg/mL total lipid in 3 mL of buffer solution containing 50 mM sodium citrate, 50 mM sodium phosphate, 50 mM sodium borate, and 30 mM sodium chloride (pH ranged from 3 to 9). […] S-shaped curve best-fit analysis was applied to the fluorescence data, and the pKa value was measured as the pH value producing half-maximal fluorescence intensity.

mice = assay: Bioluminescent study, intramuscular injection of F-luc mRNA LNPs; assay type: in vivo; details: F-luc luminescence flux normalized to MC3; 0.25 mg/kg intramuscular, mice n=3, 6-hour time point
Procedure: The efficacy of nanoparticle compositions was evaluated using bioluminescent studies. A dose of 0.25 mg/kg (mpk) of the formulation was administered to mice (n=3) via intramuscular injection, and bioluminescence was measured at a 6-hour time point. The test lipid nanoparticles from the MC3 formulation were evaluated, and in some cases, controls (e.g., PBS controls) were assessed for comparison.
The characteristics of the test lipid nanoparticles measured from the test groups, including F-luc luminescence intensity, are listed in the table below.

[2] = LNP size and PDI by dynamic light scattering; assay type: physicochemical; details: mRNA LNP, cationic lipid/DSPC/cholesterol/PEG-lipid 50:10:38.5:1.5
Procedure: as §1, §2

LNP zeta potential = assay type: physicochemical; details: mRNA LNP
Text: Nanoparticle compositions can be characterized by various methods. For example, the morphology and size distribution of nanoparticle compositions can be examined using microscopy (e.g., transmission electron microscopy or scanning electron microscopy). The zeta potential can be measured using dynamic light scattering or potentiometric titration. Dynamic light scattering can also be used to determine particle size. Instruments such as the Zetasizer Nano ZS (Malvern Instruments Ltd., Malvern, Worcestershire, UK) can also be used to measure multiple characteristics of nanoparticle compositions, such as particle size, polydispersity index, and zeta potential.
[…]: The zeta potential of the nanoparticle composition can indicate the electrophoretic potential of the composition. For example, zeta potential may describe the surface charge of the nanoparticle composition. Nanoparticle compositions with relatively low positive or negative charges are generally desirable, as materials with higher charges may interact undesirably with cells, tissues, and other components in the body. In some embodiments, the zeta potential of the nanoparticle composition may be about −10 mV to about +20 mV, about −10 mV to about +15 mV, about −10 mV to about +10 mV, about −10 mV to about +5 mV, about −10 mV to about 0 mV, about −10 mV to about −5 mV, about −5 mV to about +20 mV, about −5 mV to about +15 mV, about −5 mV to about +10 mV, about −5 mV to about +5 mV, about −5 mV to about 0 mV, about 0 mV to about +20 mV, about 0 mV to about +15 mV, about 0 mV to about +10 mV, about 0 mV to about +5 mV, about +5 mV to about +20 mV, about +5 mV to about +15 mV, or about +5 mV to about +10 mV.

Structure (SMILES) | Encapsulation efficiency (%) [1] [%] | Relative Total flux (mice) | PDI [2] | Size (nm) [2] [nm] | Zeta potential (mV) (LNP zeta potential)
CCCCCCCC(C(=O)NCCCCCCCCCC(=O)OC(CCCCCC)CCCCCC)N(CCCN1CCCC1)C(=O)CCCCCCCCCC(=O)OC(CCCCCC)CCCCCC (centres unmarked) [Compound A2] | 50.77 | C (C: ≥0.1 and <1) | 0.153 | 78.3 | −2.69
CCCCCCCC(C(=O)NCCCCCCCCCC(=O)OC(CCCCCC)CCCCCC)N(CCN(CCO)C1CCCCC1)C(=O)CCCCCCCCCC(=O)OC(CCCCCC)CCCCCC (centres unmarked) [Compound B15] | 95.93 | A (A: ≥2) | 0.182 | 87.64 | 2.43
CCCCCCCC(C(=O)NCCCCCCCCCC(=O)OC(CCCCCC)CCCCCC)N(CCOC(=O)CCN1CCCC1)C(=O)CCCCCCCCCC(=O)OC(CCCCCC)CCCCCC (centres unmarked) [Compound B25] | 69.52 | A (A: ≥2) | 0.095 | 64.2 | −3.38
CCCCCCC(CCCCCC)OC(=O)CCCCCCCCCNC(=O)C(CCCCCCCCCC(=O)OC(CCCCCC)CCCCCC)N(CCCN(CCO)CCO)C(=O)CCCN(C)C (centres unmarked) [Compound E3] | 89.28 | C (C: ≥0.1 and <1) | 0.166 | 93.07 | −2.06
CCCCCCCC(C(=O)NCCCCCCCCCC(=O)OC(CCCCCC)CCCCCC)N(CCn1ccnc1)C(=O)CCCCCCCCCC(=O)OC(CCCCCC)CCCCCC (centres unmarked) [Compound B18] | 81.99 | A (A: ≥2) | 0.187 | 80.68 | 4.79
CCCCCCCC(C(=O)NCCCCCCCCCC(=O)OC(CCCCCC)CCCCCC)N(CCOC(=O)CCN(C)C)C(=O)CCCCCCCCCC(=O)OC(CCCCCC)CCCCCC (centres unmarked) [Compound B24] | 93.57 | A (A: ≥2) | 0.245 | 68.83 | −9.96
CCCCCCCC(C(=O)NCCCCCCCCCC(=O)OC(CCCCCC)CCCCCC)N(CCCN(CCO)CCO)C(=O)CCCCCCCCCC(=O)OCC12CC3CC(CC(C3)C1)C2 (centres unmarked) [Compound B4] | 96.14 | A (A: ≥2) | 0.159 | 72.08 | 10.58
CCCCCCCC(C(=O)NCCCCCCCCCC(=O)OC(CCCCCC)CCCCCC)N(CCCN1CCN(CCO)CC1)C(=O)CCCCCCCCCC(=O)OC(CCCCCC)CCCCCC (centres unmarked) [Compound B17] | 92.99 | A (A: ≥2) | 0.185 | 64.2 | 14.20
CCCCCCCC(C(=O)NCCCCCCCCCC(=O)OC(CCCCCC)CCCCCC)N(CCCN(CCO)C1CCCCC1)C(=O)CCCCCCCCCC(=O)OC(CCCCCC)CCCCCC (centres unmarked) [Compound B14] | 89.01 | A (A: ≥2) | 0.13 | 76.67 | 2.73
CCCCCCCC(C(=O)NCCCCCCCCCC(=O)OC(CCCCCC)CCCCCC)N(CCNCCO)C(=O)CCCCCCCCCC(=O)OC(CCCCCC)CCCCCC (centres unmarked) [Compound B6] | 75.47 | A (A: ≥2) | 0.183 | 61.81 | −0.39
CCCCCCCCNC(=O)C(CCCCCCCC)N(CCN(C)CCO)C(=O)CCCCCCC(=O)OC(CCCCCCCC)CCCCCCCC (centres unmarked) [Compound B31] | 95.03 | A (A: ≥2) | 0.10 | 61.00 | 4.83
CCCCCCCC(C(=O)NCCCCCCCCCC(=O)OC(CCCCCC)CCCCCC)N(CCCN(CCO)CCO)C(=O)CCCCCCCCCC(=O)OC(CCCCCC)CCCCCC (centres unmarked) [Compound B2] | 85.90 | A (A: ≥2) | 0.15 | 104.5 | −6.41
CCCCCCC(CCCCCC)OC(=O)CCCCCCCCCNC(=O)C(CCCCCCCCCC(=O)OC(CCCCCC)CCCCCC)N(CCCN(CC)CC)C(=O)CCCN(CC)CC (centres unmarked) [Compound E7] | 92.11 | C (C: ≥0.1 and <1) | 0.13 | 95.52 | −16.13
CCCCCCCCNC(=O)C(CCCCCCCC)N(CCCN(C)C)C(=O)CCCCCC(=O)NC(CCCCCCC)CCCCCCC (centres unmarked) [Compound A32] | 95.33 | B (B: ≥1 and <2) | 0.13 | 85.33 | 1.89
CCCCCCCC(C(=O)NCCCCCCCCCC(=O)OC(CCCCCC)CCCCCC)N(CCN(CO)CO)C(=O)CCCCCCCCCC(=O)OC(CCCCCC)CCCCCC (centres unmarked) [Compound B7] | 85.36 | A (A: ≥2) | 0.116 | 58.86 | −2.80
CCCCCCCCC(C(=O)NCCCCCCCCCC(=O)OCC1CC=CCC1)N(CCCN(C)C)C(=O)CCCCCCCCCC(=O)OC(CCCCCC)CCCCCC (centres unmarked) [Compound A20] | 60.65 | D (D: <0.1.) | 0.113 | 93.07 | 17.70
